Measured values as given in patent US12240862B2, “Inhibitors of peptidylarginine deiminases” (Gilead Sciences, Inc., priority 2020, dated 2025).

Target: T1, human PAD4 (Homo sapiens, UniProt Q9UM07)
T1 construct: human PAD4 (NM_012387), A2P663, was PCR amplified; His-SUMO (N, cleaved yes); made in house; host or cells: E. coli BL21(DE3)
Experiment: In vitro PAD4 BAEE biochemical assay
Details: human PAD4, BAEE substrate; 5 nM PAD4, 2 mM calcium chloride, 3 mM BAEE; geometric mean of multiple experiments
Summary of the method: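 Ammonia generated from BAEE serves as the readout, measured by o-phthalaldehyde after EDTA termination. Final conditions: 5 nM human PAD4 (SUMO tag cleaved), 2 mM CaCl2, 3 mM BAEE, pH 7.6 MOPS buffer, 25 °C for 2 h following a 30-min compound preincubation.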

T1 sequence (Q9UM07 2-663): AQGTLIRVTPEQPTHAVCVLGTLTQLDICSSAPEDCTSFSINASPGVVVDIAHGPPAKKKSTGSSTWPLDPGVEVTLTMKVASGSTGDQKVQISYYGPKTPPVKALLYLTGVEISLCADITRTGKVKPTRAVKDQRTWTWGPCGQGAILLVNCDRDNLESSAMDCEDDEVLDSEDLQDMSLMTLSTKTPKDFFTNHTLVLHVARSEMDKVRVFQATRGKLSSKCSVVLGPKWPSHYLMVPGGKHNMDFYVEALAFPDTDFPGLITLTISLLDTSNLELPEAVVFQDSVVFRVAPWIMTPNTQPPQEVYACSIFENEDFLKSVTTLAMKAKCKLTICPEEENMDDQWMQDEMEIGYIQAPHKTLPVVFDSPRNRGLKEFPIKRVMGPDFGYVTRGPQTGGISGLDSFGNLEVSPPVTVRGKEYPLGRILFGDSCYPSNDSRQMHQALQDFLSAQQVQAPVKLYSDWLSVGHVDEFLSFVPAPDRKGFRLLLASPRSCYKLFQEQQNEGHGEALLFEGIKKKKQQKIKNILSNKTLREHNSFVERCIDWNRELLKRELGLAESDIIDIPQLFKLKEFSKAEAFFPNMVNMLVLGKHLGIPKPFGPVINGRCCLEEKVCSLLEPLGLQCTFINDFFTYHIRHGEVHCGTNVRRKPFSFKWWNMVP

IC50 [nM]	SMILES
485	COc1cc(C(=O)N2C[C@H]3CCC[C@@H]2[C@@H]3N)cc2nc(-c3cc4ccc(N(C(F)F)S(C)(=O)=O)nc4n3CC3CC3)c(C)n12 [Example 349, N-(2-(7-((1R,5R,8R)-8-amino-6-azabicyclo[3.2.1]octane-6-carbonyl)-5-methoxy-3-methylimidazo [1,2-a]pyridin-2-yl)-1-(cyclopropylmethyl)-1H-pyrrolo[2,3-b]pyridin-6-yl)-N-(difluoromethyl) methanesulfonamide]
90.2	COc1cc(C(=O)N2C[C@H](N)CCN2C)cc2nc(-c3cc4ccc([C@@H](C)NC(=O)c5ccccc5)nc4n3CC3CC3)c(C)n12 [Example 614, N—((R)-1-(2-(7-((R)-5-amino-2-methylhexahydropyridazine-1-carbonyl)-5-methoxy-3-methylimidazo[1,2-a]pyridin-2-yl)-1-(cyclopropylmethyl)-1H-pyrrolo[2,3-b]pyridin-6-yl)ethyl)benzamide]
104	COc1cc(C(=O)N2CCC[C@@H](N)C2)cc2nc(-c3cc4ccc(N(C(F)F)S(C)(=O)=O)nc4n3CC3CC3)c(C3CC3)n12 [Example 391, ~{N}-[2-[7-[(3~{R})-3-aminopiperidine-1-carbonyl]-3-cyclopropyl-5-methoxyimidazo [1,2-a]pyridin-2-yl]-1-(cyclopropylmethyl)pyrrolo [2,3-b]pyridin-6-yl]-~{N}-(difluoromethyl) methanesulfonamide]
194	CS(=O)(=O)N(c1ccc2cc(-c3nc4cc(C(=O)N5CCC[C@@H](N)C5)ccn4c3CC3CC3)n(CC3CC3)c2n1)C(F)F [Example 438, ~{N}-[2-[7-[(3~{R})-3-aminopiperidine-1-carbonyl]-3-(cyclopropylmethyl)imidazo [1,2-a]pyridin-2-yl]-1-(cyclopropylmethyl)pyrrolo [2,3-b]pyridin-6-yl]-~{N}-(difluoromethyl) methanesulfonamide]
17700	CCc1ccc2cc(-c3nc4cc(C(=O)N5[C@H]6CC[C@@H]5[C@H](N)C6)cc(OC)n4c3C)n(-c3ccccc3)c2n1 [Example 512, [(1~{R},2~{R},4~{S})-2-amino-7-azabicyclo [2.2.1]heptan-7-yl]-[2-(6-ethyl-1-phenylpyrrolo [2,3-b]pyridin-2-yl)-5-methoxy-3-methylimidazo [1,2-a]pyridin-7-yl]methanone]

Second part, the molecule before the results:

SMILES	IC50 [nM]
COc1cc(C(=O)N2[C@H]3CC[C@@H]2[C@H](N)C3)cc2nc(-c3cc4ccc([C@@H](C)NC(=O)c5cnn6c5CCC6)nc4n3CC3CC3)c(C)n12 [Example 74, ~{N}-[(1~{R})-1-[2-[7-[(1~{R},2~{R},4~{S})-2-amino-7-azabicyclo[2.2.1]heptane-7-carbonyl]-5-methoxy-3-methylimidazo [1,2-a]pyridin-2-yl]-1-(cyclopropylmethyl)pyrrolo [2,3-b]pyridin-6-yl]ethyl]-5,6-dihydro-4~{H}-pyrrolo[1,2-b] pyrazole-3-carboxamide]	28.3
COc1cc(C(=O)N2[C@H]3CC[C@@H]2[C@H](N)C3)cc2nc(-c3cc4ccc([C@@H](C)NC(=O)c5ccncc5F)nc4n3CC3CC3)c(C)n12 [Example 52]	31.4
COc1cc(C(=O)N2[C@H]3CC[C@@H]2[C@H](N)C3)cc2nc(-c3cc4ccc([C@@H](C)NC(=O)N5CCOC[C@@H]5C(F)(F)F)nc4n3CC3CC3)c(C)n12 [Example 199, (3~{R})-~{N}-[(1~{R})-1-[2-[7-[(1~{R}, 2~{R},4~{S})-2-amino-7-azabicyclo[2.2.1]heptane-7-carbonyl]-5-methoxy-3-methylimidazo [1,2-a]pyridin-2-yl]-1-(cyclopropylmethyl)pyrrolo [2,3-b]pyridin-6-yl]ethyl]-3-(trifluoromethyl)morpholine-4-carboxamide]	35.4
COc1cc(C(=O)N2CC[C@H]3CCN[C@H]3C2)cc2nc(-c3cc4ccc([C@@H](C)NC(=O)c5ccccc5)nc4n3CC3CC3)c(C)n12 [Example 59, ~{N}-[(1~{R})-1-[2-[7-[(3~{a}~{R}, 7~{a}~{R})-1,2,3,3~{a},4,5,7,7~{a}-octahydropyrrolo[2,3-c]pyridine-6-carbonyl]-5-methoxy-3-methylimidazo[1,2-a]pyridin-2-yl]-1-(cyclopropylmethyl)pyrrolo[2,3-b]pyridin-6-yl]ethyl]benzamide]	194
COc1cc(C(=O)N2CCC[C@@H](N)CC2)cc2nc(-c3cc4ccc([C@@H](C)NC(=O)C56CC(F)(C5)C6)nc4n3CC3CC3)c(C)n12 [Example 38, ~{N}-[(1~{R})-1-[2-[7-[(4~{R})-4-aminoazepane-1-carbonyl]-5-methoxy-3-methylimidazo[1,2-a]pyridin-2-yl]-1-(cyclopropylmethyl)pyrrolo[2,3-b]pyridin-6-yl]ethyl]-3-fluorobicyclo[1.1.1] pentane-1-carboxamide]	30600
COc1cc(C(=O)N2[C@H]3CC[C@@H]2[C@H](N)C3)cc2nc(-c3cc4ccc([C@@H](C)NC(=O)NC(C)(C)C(F)(F)F)nc4n3CC3CC3)c(C)n12 [Example 213, 1-[(1~{R})-1-[2-[7-[(1~{R},2~{R},4~{S})-2-amino-7-azabicyclo[2.2.1]heptane-7-carbonyl]-5-methoxy-3-methylimidazo [1,2-a]pyridin-2-yl]-1-(cyclopropylmethyl)pyrrolo [2,3-b]pyridin-6-yl]ethyl]-3-(1,1,1-trifluoro-2-methylpropan-2-yl)urea]	46.9
COc1cc(C(=O)N2CC[C@@H](OC)[C@@H](N)C2)cc2nc(-c3cc4ccc([C@@H](C)NC(=O)c5ccccc5)nc4n3CC3CC3)c(C)n12 [Example 114, ~{N}-[(1~{R})-1-[2-[7-[(3~{S},4~{R})-3-amino-4-methoxypiperidine-1-carbonyl]-5-methoxy-3-methylimidazo [1,2-a]pyridin-2-yl]-1-(cyclopropylmethyl)pyrrolo [2,3-b]pyridin-6-yl]ethyl]benzamide]	220
COc1cc(C(=O)N2[C@H]3CC[C@@H]2[C@H](N)C3)cc2nc(-c3cc4ccc([C@@H](C)NC(=O)N5CCC(C(=O)O)C5)nc4n3CC3CC3)c(C)n12 (stereo partly drawn) [Example 228]	48.6
COc1cc(C(=O)N2CC[C@H]3CCCN[C@H]3C2)cc2nc(-c3cc4ccc([C@@H](C)NC(=O)C56CC(F)(C5)C6)nc4n3CC3CC3)c(C)n12 [Example 180, ~{N}-[(1~{R})-1-[2-[7-[(4~{a}~{R},8~{a}~{R})-2,3,4,4~{a},5,6,8,8~{a}-octahydro-1~{H}-1,7-naphthyridine-7-carbonyl]-5-methoxy-3-methylimidazo [1,2-a]pyridin-2-yl]-1-(cyclopropylmethyl)pyrrolo [2,3-b]pyridin-6-yl]ethyl]-3-fluorobicyclo[1.1.1]pentane-1-carboxamide]	494
COc1cc(C(=O)N2[C@H]3CC[C@@H]2[C@H](N)C3)cc2nc(-c3cc4ccc([C@@H](C)NC(=O)c5cnc(C)o5)nc4n3CC3CC3)c(C)n12 [Example 80, ~{N}-[(1~{R})-1-[2-[7-[(1~{R},2~{R},4~{S})-2-amino-7-azabicyclo[2.2.1]heptane-7-carbonyl]-5-methoxy-3-methylimidazo [1,2-a]pyridin-2-yl]-1-(cyclopropylmethyl)pyrrolo [2,3-b]pyridin-6-yl]ethyl]-2-methyl-1,3-oxazole-5-carboxamide]	28.6
